Results reported in patent US7163689B2, “Intravenous valproate for acute treatment of migraine headache” (priority 1999, dated 2007).
Where “and” joins values, the source holds several entries; their conditions need not be identical. Identical values can stand only once.

Tests used:
Type in all cases: in vivo, human
[1] = test system: patients with moderate to severe migraine headaches of duration of 24 to 96 hrs; assay: Pilot study: IV valproate vs IM DHE with metoclopramide for abortive treatment of acute migraine headache (Example 1); conditions: for % Headache Relief: 5 patients per group; for Headache Severity / Nausea/vomiting / Phonophobia / Photophobia: individual patient; for Headache Severity: grade 0-3; for Nausea/vomiting / Phonophobia / Photophobia: presence; for patients who had nausea / patients who had relief of phonophobia / patients who had relief of photophobia / patients with response of headache from moderate or severe to none or mild: of 5 patients
Text: This Example describes the results of a pilot study using intravenous valproate for abortive treatment of acute migraine headache. • Methods. Patients with established diagnosis of migraine with and without aura were considered for randomization to intravenous (“IV”) valproate (“VPA”) or intramuscular (“IM”) dihydroergotamine (“DHE”) with metoclopramide, also referred to herein as […]®, for patients with moderate to severe migraine headaches of duration of 24 to 96 hrs. Patients received intravenous infusion of 500 mgs of valproate over 30 mins or 1 mg DHE with 10 mgs metoclopramide IM. Headache severity, presence of nausea, phonophobia and photophobia were rated at baseline, 1 hr, 2 hrs, and 4 hrs. Table I and II. There were 5 patients in each group. • Results. Of the 5 patients receiving valproate, 4 of the 5 had response of their headaches from moderate or severe to none or mild at 1 hr, 2 hrs, and 4 hrs. Of the 5 patients receiving DHE, 3 of the 5 patients had headache response to moderate or severe to mild or none at 1 hr, 2 hrs, and 4 hrs. Table III. […] In the DHE group, 2 of 5 had nausea at baseline, and 1 had nausea at 1 hr, 2 hrs, and 4 hrs. Table IVa. […] In the DHE group, 3 of 5 had relief of photophobia at 1 hr, 4 of 5 had relief at 2 hrs and 4 hrs. […] In the DHE group, 2 of 5 had relief of phonophobia at 1 hr, and 3 of 5 had relief of phonophobia at 2 hrs and 4 hrs. Table IVb. • Conclusions. Intravenous valproate is an alternative therapy for abortive treatment of moderate to severe prolonged acute migraine headache. Anti-convulsant mechanisms may be relevant to treatment of headache symptomatology.

[2] = test system: patients with prolonged moderate to severe migraine; assay: Further expanded study (N=40): Depacon vs DHE preceded by metoclopramide, prolonged moderate to severe migraine (Example 3); conditions: for Headache Severity (group value, four grade rating) / Number of Patients Who Reported Nausea / Number of Patients Who Reported Phonophobia / Number of Patients Who Reported Photophobia / Responder Rate / Symptom Free patients (no headache or associated symptomatology), % / Symptom Free patients (no headache or associated symptomatology), number: N = 20 per group
Text: This Example describes a further expanded study and analysis of the effectiveness of intravenous VPA for the treatment of acute migraine headache of significant duration. Patient data from the study described in Examples 1 and 2 have been incorporated and further analyzed in addition to new patient data. • Design and Methods. Participants (N=40) were from age 14 to 74 and were established patients of the Western New England Headache Clinic. Patients called to report the pressure of prolonged moderate to severe migraine. They had no evidence of conditions other than migraine to cause headache and were medically stable. […] Patients received a neurological and general physical examination and filled out a four grade baseline headache rating from developed by Western New England Headache Clinic (see Table 2). The patients then received either 500 mg Depacon™ over 15–30 minutes administered in 100 ccs D5W, or 1 mg DHE intramuscularly preceded by 10 mg metoclopramide intramuscularly. Headache severity and associated symptomatology were rated 1, 2, and 4 hours. Results. A total of 40 patients were randomized, 20 in the Depacon™ group and 20 in the DHE group. Table VII summarizes the number of patients in each group by severity of headache (moderate or severe), demographic data and medication assignment.

[3] = test system: patients with moderate to severe migraine headaches of duration of 24 to 96 hrs; assay: Pilot study: IV valproate vs IM DHE with metoclopramide for abortive treatment of acute migraine headache (Example 1); conditions: individual patient, grade 0-3; 24-h

CN1C[C@H](C(=O)N[C@]2(C)O[C@@]3(O)[C@@H]4CCCN4C(=O)[C@H](Cc4ccccc4)N3C2=O)C[C@@H]2c3cccc4[nH]cc(c34)C[C@H]21 [DHE, dihydroergotamine]
% experiencing Nausea ([1]; 0-h (baseline)): 40% | % experiencing Photophobia ([1]; 0-h (baseline)): 100% | % experiencing phonphobia ([1]; 0-h (baseline)): 80% | % experiencing Nausea ([1]; 1-h): 20% | % experiencing Photophobia ([1]; 1-h): 60% | % experiencing phonphobia ([1]; 1-h): 40% | % experiencing Nausea ([1]; 2-h): 50% | % experiencing Photophobia ([1]; 2-h): 50% | % experiencing phonphobia ([1]; 2-h): 50% | % experiencing Nausea ([1]; 4-h): 40% | % experiencing Photophobia ([1]; 4-h): 40% | % experiencing phonphobia ([1]; 4-h): 40% | % Headache Relief ([1]; 1-h): 60% | % Headache Relief ([1]; 2-h): 50% | % Headache Relief ([1]; 4-h): 60% | Headache Severity ([1]; 0-h (baseline), Depacon IV 500 mg or DHE 1 mg + Reglan 10 mg): 2 and 3 (4×) | Headache Severity ([1]; 1-h): 3 and 0 (2×) and 1 and 2 | Headache Severity ([1]; 2-h): 3 and 0 (2×) and 2 | Headache Severity ([1]; 4-h): 3 and 1 and 0 (2×) and 2 | Nausea/vomiting ([1]; 0-h (baseline)): 0 | Phonophobia ([1]; 0-h (baseline)): 0 | Nausea/vomiting ([1]; 1-h): 0 | Phonophobia ([1]; 1-h): 0 | Photophobia ([1]; 1-h): 0 | Nausea/vomiting ([1]; 2-h): 0 | Phonophobia ([1]; 2-h): 0 | Photophobia ([1]; 2-h): 0 | Nausea/vomiting ([1]; 4-h): 0 | Phonophobia ([1]; 4-h): 0 | Photophobia ([1]; 4-h): 0 | Nausea/vomiting ([1]; 24-h): 0 | Phonophobia ([1]; 24-h): 0 | Photophobia ([1]; 24-h): 0 | patients who had nausea ([1]; 1 hr): 1 | patients who had relief of phonophobia ([1]; 1 hr): 2 of 5 | patients who had relief of photophobia ([1]; 1 hr): 3 of 5 | patients with response of headache from moderate or severe to none or mild ([1]; 1 hr): 3 of the 5 | patients who had nausea ([1]; 2 hrs): 1 | patients who had relief of phonophobia ([1]; 2 hrs): 3 of 5 | patients who had relief of photophobia ([1]; 2 hrs): 4 of 5 | patients with response of headache from moderate or severe to none or mild ([1]; 2 hrs): 3 of the 5 | patients who had nausea ([1]; 4 hrs): 1 | patients who had relief of phonophobia ([1]; 4 hrs): 3 of 5 | patients who had relief of photophobia ([1]; 4 hrs): 4 of 5 | patients with response of headache from moderate or severe to none or mild ([1]; 4 hrs): 3 of the 5 | patients who had nausea ([1]; baseline): 2 of 5 | % of Patients Who Reported Nausea ([2]; 1 hour): 42% | % of Patients Who Reported Phonophobia ([2]; 1 hour): 67% | % of Patients Who Reported Photophobia ([2]; 1 hour): 75% | % of Patients Who Reported Nausea ([2]; 2 hours): 50% | % of Patients Who Reported Phonophobia ([2]; 2 hours): 67% | % of Patients Who Reported Photophobia ([2]; 2 hours): 65% | % of Patients Who Reported Nausea ([2]; 4 hours): 50% | % of Patients Who Reported Phonophobia ([2]; 4 hours): 61% | % of Patients Who Reported Photophobia ([2]; 4 hours): 55% | % of Patients Who Reported Nausea ([2]; Baseline): (60%) | % of Patients Who Reported Phonophobia ([2]; Baseline): 90% | % of Patients Who Reported Photophobia ([2]; Baseline): 100% | Headache Severity (group value, four grade rating) ([2]; 1 hour): 1.5 | Number of Patients Who Reported Nausea ([2]; 1 hour): 5 | Number of Patients Who Reported Phonophobia ([2]; 1 hour): 12 | Number of Patients Who Reported Photophobia ([2]; 1 hour): 15 | Responder Rate ([2]; 1 hour): 45% | Headache Severity (group value, four grade rating) ([2]; 2 hours): 1.4 | Number of Patients Who Reported Nausea ([2]; 2 hours): 6 | Number of Patients Who Reported Phonophobia ([2]; 2 hours): 12 | Number of Patients Who Reported Photophobia ([2]; 2 hours): 13 | Responder Rate ([2]; 2 hours): 50% | Headache Severity (group value, four grade rating) ([2]; 4 hours): 1.2 | Number of Patients Who Reported Nausea ([2]; 4 hours): 6 | Number of Patients Who Reported Phonophobia ([2]; 4 hours): 11 | Number of Patients Who Reported Photophobia ([2]; 4 hours): 11 | Responder Rate ([2]; 4 hours): 60% | Headache Severity (group value, four grade rating) ([2]; Baseline): 2.6 | Number of Patients Who Reported Nausea ([2]; Baseline): DHE 12 | Number of Patients Who Reported Phonophobia ([2]; Baseline): 18 | Number of Patients Who Reported Photophobia ([2]; Baseline): 20 | Symptom Free patients (no headache or associated symptomatology), % ([2]; at 1 hour): 15% | Symptom Free patients (no headache or associated symptomatology), number ([2]; at 1 hour): 3 | Symptom Free patients (no headache or associated symptomatology), % ([2]; at 2 hours): 25% | Symptom Free patients (no headache or associated symptomatology), number ([2]; at 2 hours): 5 | Symptom Free patients (no headache or associated symptomatology), % ([2]; at 4 hours): 30% | Symptom Free patients (no headache or associated symptomatology), number ([2]; at 4 hours): 6 | Headache Severity [3]: 1 (2×) and 0 and 2
